Experiment [1] deals with T1, recombinant human ALK5 (TGF-βR1) protein (Homo sapiens, UniProt P36897).
T1 construct: purchased Life Technologies PR9075A
T1 sequence (P36897 34-503): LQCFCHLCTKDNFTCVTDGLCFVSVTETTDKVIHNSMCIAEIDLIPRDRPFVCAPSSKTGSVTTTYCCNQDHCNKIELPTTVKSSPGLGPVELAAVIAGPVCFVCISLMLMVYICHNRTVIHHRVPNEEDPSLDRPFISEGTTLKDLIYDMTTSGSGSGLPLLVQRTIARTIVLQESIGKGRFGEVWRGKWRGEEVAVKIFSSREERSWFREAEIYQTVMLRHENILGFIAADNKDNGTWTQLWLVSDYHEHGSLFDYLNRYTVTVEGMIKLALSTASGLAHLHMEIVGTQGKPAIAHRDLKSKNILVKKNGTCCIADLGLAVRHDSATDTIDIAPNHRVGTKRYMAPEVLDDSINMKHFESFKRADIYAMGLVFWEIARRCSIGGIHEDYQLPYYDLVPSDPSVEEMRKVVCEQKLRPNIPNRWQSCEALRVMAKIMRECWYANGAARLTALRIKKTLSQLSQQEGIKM
Briefly: Biochemical ALK5 (TGF-βR1) assay to measure pKi (LANCE Ultra ULight kinase assay). The settings on record: apparent pKi from pIC50 by Cheng-Prusoff, read-out: ALK5 pKi (converted). In short, it runs like this: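 Compounds (10 μM to 25 pM) preincubated 60 minutes at room temperature with enzyme, then reaction run 60 minutes at 37° C with ATP added as 125 μM (5× final). Stopped with EDTA plus Eu-anti-phospho-Topoisomerase 2-alpha (Thr1342) antibody, TR-FRET read at 665 nm; pIC50 converted to pKi via Cheng-Prusoff.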
(In TR-FRET formats the signal depends on donor and acceptor labels being close together.)

Experiment [2] deals with TGF-β-stimulated SMAD3 phosphorylation in BEAS-2B cells. Briefly: Cellular ALK5 potency assay, inhibition of TGF-β stimulated pSMAD3 formation in BEAS-2B cells. It is filed as cell-based. To be noted: Homo sapiens; inhibition of TGF-β stimulated pSMAD3 formation, BEAS-2B cells; read-out: BEAS2B pIC50 (converted). In short, it runs like this:
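BEAS-2B human lung epithelial cells pre-treated 1 h at 37° C with compound in HBSS/25 mM HEPES/1% BSA, then stimulated 30 min with 10 ng/mL TGF-β (final). Lysates assayed for pSMAD3 by AlphaLISA; pIC50 from dose-dependent change versus stimulated untreated cells.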

`Cc1cccc(-c2nc3ccccn3c2-c2ccc3ncc(NCCN4CCN(C(C)C)CC4)cc3c2)n1` [Compound 293, N-(2-(4-isopropylpiperazin-1-yl)ethyl)-6-(2-(6-methylpyridin-2-yl)imidazo[1,2-a]pyridin-3-yl)quinolin-3-amine]: the Ki in experiment [1] is 0.0398 to 0.316 nM. Besides, in experiment [2], the IC50 is 25.1 to 158 nM.

For the compound `CNC(=O)[C@H]1CN(c2cnc3ccc(-c4nc[nH]c4-c4cccc(C)n4)cc3c2)CCN1` [Compound 376, (2R)-N-methyl-4-[6-[5-(6-methyl-2-pyridyl)-1H-imidazol-4-yl]-3-quinolyl]piperazine-2-carboxamide], the Ki in experiment [1] was 0.0398 to 0.316 nM. Besides, in experiment [2], the IC50 was 200 to 1260 nM.

Turning to `Cc1cccc(-c2[nH]cnc2-c2ccc3ncc(C(=O)OCCCN4C[C@@H](C)N[C@@H](C)C4)cc3c2)n1` [Compound 898, 3-((3S,5R)-3,5-dimethylpiperazin-1-yl)propyl 6-(5-(6-methylpyridin-2-yl)-1H-imidazol-4-yl)quinoline-3-carboxylate], in experiment [1], the Ki was 0.0398 to 0.316 nM. Further, the IC50 in experiment [2] was 25.1 to 158 nM.

Regarding `CCc1cccc(-c2n[nH]cc2-c2ccc3ncc(-c4ccn(CCNC)n4)cc3n2)n1` [Compound 92, 2-(3-(6-(3-(6-ethylpyridin-2-yl)-1H-pyrazol-4-yl)-1,5-naphthyridin-3-yl)-1H-pyrazol-1-yl)-N-methylethan-1-amine], the Ki in experiment [1] is 0.0398 to 0.316 nM. Also, in experiment [2], the IC50 is 25.1 to 158 nM.

For the compound `Cc1cccc(-c2n[nH]cc2-c2ccc3ncc(N4CCCN(C)CC4)cc3n2)n1` [Compound 144, 7-(4-methyl-1,4-diazepan-1-yl)-2-[3-(6-methyl-2-pyridyl)-1H-pyrazol-4-yl]-1,5-naphthyridine], in experiment [1], the Ki is 0.0398 to 0.316 nM. Besides, in experiment [2], the IC50 is 25.1 to 158 nM.

On to `Cc1cccc(-c2n[nH]cc2-c2ccc3ncc(-c4cnc5n4CCNC5)cc3c2)n1` [Compound 538, 6-[3-(6-methyl-2-pyridyl)-1H-pyrazol-4-yl]-3-(5,6,7,8-tetrahydroimidazo[1,2-a]pyrazin-3-yl)quinoline], for which the Ki in experiment [1] was 0.398 to 3.16 nM. In addition, the IC50 in experiment [2] is 25.1 to 158 nM.

As to `CNCCn1cc(-c2cnc3ccc(-c4c[nH]nc4-c4cccc(C)n4)nc3c2)cn1` [Compound 487, N-methyl-2-[4-[6-[3-(6-methyl-2-pyridyl)-1H-pyrazol-4-yl]-1,5-naphthyridin-3-yl]pyrazol-1-yl]ethanamine], in experiment [1], the Ki was less than 0.0316 nM. Further, the IC50 in experiment [2] was less than 20 nM.

For the compound `Cc1cccc(-c2n[nH]cc2-c2ccc3ncc(C4=CCC(NCc5ccccc5)CC4)cc3n2)n1` (stereo not shown) [Compound 502, N-benzyl-4-[6-[3-(6-methyl-2-pyridyl)-1H-pyrazol-4-yl]-1,5-naphthyridin-3-yl]cyclohex-3-en-1-amine], in experiment [1], the Ki is less than 0.0316 nM. In experiment [2], the IC50 was 25.1 to 158 nM.

As for `Cc1cccc(-c2[nH]cnc2-c2ccc3ncc(-c4nc5c(s4)CNCC5)cc3c2)n1` [Compound 1068, 2-[6-[5-(6-methyl-2-pyridyl)-1H-imidazol-4-yl]-3-quinolyl]-4,5,6,7-tetrahydrothiazolo[5,4-c]pyridine], in experiment [1], the Ki was 0.0398 to 0.316 nM. In experiment [2], the IC50 is less than 20 nM.

`Cc1cccc(-c2n[nH]cc2-c2ccc3ncc(-c4nc5c(s4)CNCC5)cc3n2)n1` [Compound 175, 2-[6-[3-(6-methyl-2-pyridyl)-1H-pyrazol-4-yl]-1,5-naphthyridin-3-yl]-4,5,6,7-tetrahydrothiazolo[5,4-c]pyridine]: in experiment [1], the Ki was 0.0398 to 0.316 nM. Also, in experiment [2], the IC50 is 25.1 to 158 nM.

As for `Cc1cccc(-c2[nH]cnc2-c2ccc3ncc(C(=O)OC[C@@H]4CCCCN4)cc3c2)n1` [Compound 883, (S)-piperidin-2-ylmethyl 6-(5-(6-methylpyridin-2-yl)-1H-imidazol-4-yl)quinoline-3-carboxylate], the Ki in experiment [1] was 0.398 to 3.16 nM. The IC50 in experiment [2] is 25.1 to 158 nM.

For the compound `Cc1cccc(-c2[nH]ncc2-c2ccc3ncc(C(=O)O[C@@H]4CCCNC4)cc3c2)n1` [Compound 1203, [(3R)-3-piperidyl] 6-[5-(6-methyl-2-pyridyl)-1H-pyrazol-4-yl]quinoline-3-carboxylate], in experiment [1], the Ki is 0.0398 to 0.316 nM. In addition, in experiment [2], the IC50 was 25.1 to 158 nM.

In the case of `Cc1cccc(-c2n[nH]cc2-c2ccc3ncc(-c4nc(C(=O)O)co4)cc3n2)n1` [Compound 546, 2-[6-[3-(6-methyl-2-pyridyl)-1H-pyrazol-4-yl]-1,5-naphthyridin-3-yl]oxazole-4-carboxylic acid], the Ki in experiment [1] is 0.398 to 3.16 nM. Further, in experiment [2], the IC50 is 1580 to 10000 nM.

With `Cc1cccc(-c2n[nH]cc2-c2ccc3nccc(NCC(=O)N4CCOCC4)c3n2)n1` [Compound 825, 2-[[6-[3-(6-methyl-2-pyridyl)-1H-pyrazol-4-yl]-1,5-naphthyridin-4-yl]amino]-1-morpholino-ethanone], the Ki in experiment [1] is 0.398 to 3.16 nM. For the same compound, the IC50 in experiment [2] is 25.1 to 158 nM.

As to `Cc1cccc(-c2[nH]cnc2-c2ccc3ncc(-c4ccc(CN5C[C@@H](C)N[C@@H](C)C5)nc4)cc3c2)n1` [Compound 1045, 3-(6-(((3S,5R)-3,5-dimethylpiperazin-1-yl)methyl)pyridin-3-yl)-6-(5-(6-methylpyridin-2-yl)-1H-imidazol-4-yl)quinoline], the Ki in experiment [1] was 0.0398 to 0.316 nM. For the same compound, in experiment [2], the IC50 was 25.1 to 158 nM.

`CNCCn1cc(-c2cnc3ccc(-c4c[nH]nc4-c4ccc(F)c(C)n4)nc3c2)cn1` [Compound 477, 2-[4-[6-[3-(5-fluoro-6-methyl-2-pyridyl)-1H-pyrazol-4-yl]-1,5-naphthyridin-3-yl]pyrazol-1-yl]-N-methyl-ethanamine]: the Ki in experiment [1] is less than 0.0316 nM. Also, the IC50 in experiment [2] was less than 20 nM.

As for `Cc1cccc(-c2[nH]cnc2-c2ccc3ncc(C4=CCNC4)cc3n2)n1` [Compound 410, 7-(2,5-dihydro-1H-pyrrol-3-yl)-2-[5-(6-methyl-2-pyridyl)-1H-imidazol-4-yl]-1,5-naphthyridine], the Ki in experiment [1] is 0.0398 to 0.316 nM. For the same compound, in experiment [2], the IC50 was 25.1 to 158 nM.

Consider `Cc1cccc(-c2[nH]cnc2-c2ccc3ncc(C(=O)O[C@@H]4CCCC[C@@H]4N)cc3c2)n1` [Compound 881, (1R,2S)-2-aminocyclohexyl 6-(5-(6-methylpyridin-2-yl)-1H-imidazol-4-yl)quinoline-3-carboxylate], for which the Ki in experiment [1] is 3.98 to 31.6 nM. Also, the IC50 in experiment [2] is 200 to 1260 nM.

Turning to `Cc1cccc(-c2[nH]cnc2-c2ccc3ncc(NCCN4CCC(C(=O)O)CC4)cc3c2)n1` [Compound 670, 1-[2-[[6-[5-(6-methyl-2-pyridyl)-1H-imidazol-4-yl]-3-quinolyl]amino]ethyl]piperidine-4-carboxylic acid], the Ki in experiment [1] is 0.0398 to 0.316 nM. In addition, the IC50 in experiment [2] was 200 to 1260 nM.

`COc1[nH]nc(-c2cccc(C)n2)c1-c1ccc2ncc(Br)cc2n1` [Compound 42, 7-bromo-2-(5-methoxy-3-(6-methylpyridin-2-yl)-1H-pyrazol-4-yl)-1,5-naphthyridine]: the Ki in experiment [1] was 0.0398 to 0.316 nM. In addition, the IC50 in experiment [2] was 25.1 to 158 nM.

Consider `Cc1cccc(-c2[nH]cnc2-c2ccc3ncc(C4=CCCNC4)cc3c2)n1` [Compound 259, 6-[5-(6-methyl-2-pyridyl)-1H-imidazol-4-yl]-3-(1,2,3,6-tetrahydropyridin-5-yl)quinoline], for which the Ki in experiment [1] is 0.0398 to 0.316 nM. For the same compound, the IC50 in experiment [2] was less than 20 nM.

On to `Cc1nc(-c2n[nH]cc2-c2ccc3ncc(-c4cc5n(n4)CCCN5)cc3n2)ccc1F` [Compound 651, 2-[3-(5-fluoro-6-methyl-2-pyridyl)-1H-pyrazol-4-yl]-7-(4,5,6,7-tetrahydropyrazolo[1,5-a]pyrimidin-2-yl)-1,5-naphthyridine], for which, in experiment [1], the Ki is less than 0.0316 nM. Besides, the IC50 in experiment [2] is less than 20 nM.

With `Cc1cccc(-c2[nH]cnc2-c2ccc3ncc(-c4cnc5c(c4)CCNC5)cc3c2)n1` [Compound 721, 3-[6-[5-(6-methyl-2-pyridyl)-1H-imidazol-4-yl]-3-quinolyl]-5,6,7,8-tetrahydro-1,7-naphthyridine], the Ki in experiment [1] is 0.0398 to 0.316 nM. Further, in experiment [2], the IC50 was 25.1 to 158 nM.

On to `Cc1cccc(-c2n[nH]cc2-c2ccc3nccc(CNCCCN4CCN(C(C)C)CC4)c3n2)n1` [Compound 819, 3-(4-isopropylpiperazin-1-yl)-N-[[6-[3-(6-methyl-2-pyridyl)-1H-pyrazol-4-yl]-1,5-naphthyridin-4-yl]methyl]propan-1-amine], for which the Ki in experiment [1] is 0.0398 to 0.316 nM. Besides, the IC50 in experiment [2] is 25.1 to 158 nM.

As to `Cc1cccc(-c2nnn(Cc3ccccc3)c2-c2ccc3ncc(N4CCC(N5CCN(C)CC5)CC4)cc3c2)n1` [Compound 533, 6-[3-benzyl-5-(6-methyl-2-pyridyl)triazol-4-yl]-3-[4-(4-methylpiperazin-1-yl)-1-piperidyl]quinoline], the Ki in experiment [1] was 0.0398 to 0.316 nM. Moreover, the IC50 in experiment [2] is 200 to 1260 nM.

With `Cc1cccc(-c2nnn(C)c2-c2ccc3ncc(N4CCCNCC4)cc3c2)n1` [Compound 567, 3-(1,4-diazepan-1-yl)-6-[3-methyl-5-(6-methyl-2-pyridyl)triazol-4-yl]quinoline], in experiment [1], the Ki is 0.398 to 3.16 nM. In addition, the IC50 in experiment [2] was 25.1 to 158 nM.

Source of the values: patent US11590116B2 (THERAVANCE BIOPHARMA R&D IP, LLC, priority 2019, dated 2023).
